Source: patent publication US12312473B2, “Composition, film, near-infrared cut filter, pattern forming method, laminate, solid-state imaging element, infrared sensor, image display device, camera module, and compound” (FUJIFILM Corporation, priority 2019, dated 2025)
In brackets after ≈: the same amount, converted by molar mass.

assay: Solubility of coloring agent in PGMEA; format: physicochemical; conditions: propylene glycol methyl ether acetate (PGMEA), organic solvent or mixture, thermodynamic from solid, approx. 100 mg in 1 L propylene glycol methyl ether acetate at 25° C., stirred 30 minutes
Description: In the present disclosure, the solubility of the coloring agent having a structure represented by Formula (1) (that is, the specific coloring agent) is measured and obtained by the following method.
Under atmospheric pressure, approximately 100 mg (precisely weighed value is X mg) of the coloring agent having a structure represented by Formula (1) is added to 1 L of propylene glycol methyl ether acetate at 25° C., and the mixture is stirred for 30 minutes, allowed to stand for 5 minutes, and filtered. Thereafter, the filtrate is dried under reduced pressure at 80° C. for 2 hours and precisely weighed (precisely weighed value is Y mg), and the solubility of the specific coloring agent dissolved in propylene glycol methyl ether acetate is calculated from the following expression. PGMEA solubility (mg/L) of specific coloring agent=X—Y
Under atmospheric pressure, approximately 100 mg of the dispersion liquid of the coloring agents shown in Tables 1 to 4 (value of the coloring agents shown Tables 1 to 4 precisely weighed is defined as X mg) was added to 1 L of propylene glycol methyl ether acetate at 25° C., and the mixture was stirred for 30 minutes. Next, the mixture was allowed to stand for 5 minutes and filtered, and the filtrate was dried under reduced pressure at 80° C. for 2 hours and weighed precisely (value of the filtrate precisely weighed is defined as Y mg). Solubility of the coloring agents shown in Tables 1 to 4 dissolved in propylene glycol methyl ether acetate was calculated from the following expression.

solubility at 30 min [µg/mL]	Structure (SMILES)
< 10	O=C1C(c2ccc3cccc4c3c2NC2(N4)c3ccccc3-c3ccc(OC(=O)c4ccc(C(=O)Oc5ccc6c(c5)C5(N=c7/c(=C8/C(=O)C(c9ccc%10cccc%11c%10c9NC9(N%11)c%10ccccc%10-c%10ccccc%109)=C8O)ccc8cccc(c78)N5)c5ccccc5-6)cc4)cc32)=C(O)/C1=c1/ccc2cccc3c2c1=NC1(N3)c2ccccc2-c2ccccc21 (centres unmarked) [A-sq-1]
< 10	CC(=O)Nc1cc2c(cc1C1=C([O-])/C(=c3/cc4c(cc3NC(=O)c3ccc(C(=O)Nc5cc6c(cc5C5=C([O-])/C(=c7/cc8c(cc7NC(C)=O)=[N+](C)C(C)C8(C)C)C5=O)C(C)(C)C(C)N6C)cc3)=[N+](C)C(C)C4(C)C)C1=O)C(C)(C)C(C)N2C (centres unmarked) [A-sq-3]
< 10	O=C1C(c2ccc3cccc4c3c2NB(c2ccc(-c3ccc(B5Nc6cccc7ccc(C8=C(O)/C(=c9/ccc%10cccc%11c%10c9=NB(c9ccccc9)N%11)C8=O)c(c67)N5)cc3)cc2)N4)=C(O)/C1=c1/ccc2cccc3c2c1=NB(c1ccccc1)N3 [A-sq-5]

Further lines, the compound ahead of its results:

Structure (SMILES)	solubility at 30 min [µg/mL]
O=C1C(=O)/C(=C2/C=CC(=[N+]3CCC(C(=O)Oc4ccc(OC(=O)C5CC[N+](=C6C=C/C(=C7/C(=O)C(=O)C(c8ccc(N9CCC(C(=O)O)CC9)s8)=C7[O-])S6)CC5)cc4)CC3)S2)C([O-])=C1c1ccc(N2CCC(C(=O)O)CC2)s1 (centres unmarked) [A-cr-1]	50 to 100 (≈ 44.2 to 88.4 µM)
O=C1C(c2ccc3cccc4c3c2NC2(N4)c3ccccc3-c3ccccc32)=C(O)C1C1C=Cc2cccc3c2C1=NC1(N3)c2ccccc2-c2ccccc21 (centres unmarked) [compound 3, reference compound]	< 10
